Key:
[1] = target: T1, HCV polymerase (NS5B) type 1b (Hepatitis C virus genotype 1b, UniProt P26663); experiment: Assay of enzyme (HCV polymerase) inhibitory activity, type 1b enzyme; format: biochemical, HCV BK strain (type 1b)
T1 construct: a region encoding NS5B (J Virol 1991 March, 65(3), 1105-13, 544 amino acids after deletion of 47 amino acids on the C-terminal); 6xHis (C); made in house; host or cells: Escherichia coli
Method in brief: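 Polymerase activity was followed as radiolabelled UTP incorporation by E. coli-expressed, His-tagged NS5B of HCV type 1b lacking its last 47 residues. Conditions: 2 μM UTP, 50 μM other NTPs, Mg2+ buffer at pH 7.5, 25 °C for 60 min. Inhibition relative to compound-free reactions gave IC50.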

[2] = target: T2, HCV polymerase (NS5B) type 1a (Hepatitis C virus genotype 1a, UniProt P26664); experiment: Assay of enzyme (HCV polymerase) inhibitory activity, type 1a enzyme; format: biochemical, HCV type 1a (cloned from the blood of patients)
T2 construct: made in house; host or cells: Escherichia coli (by the 'similar method' of the 1b enzyme)
Method in brief: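 IC50 values derive from radioactivity of newly synthesized RNA with versus without test compound. The enzyme was C-terminally truncated type 1a NS5B, 1.5 μg/ml, run 60 min at 25° C with 3H-UTP-labelled nucleotides.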

[3] = HCV polymerase inhibitory activity IC50, 1b, type 1b enzyme
[4] = HCV polymerase inhibitory activity IC50, 1a, type 1a enzyme
[5] = HCV polymerase inhibitory activity (IC50), 1b, type 1b enzyme 0.5 μg/ml, 25° C., 60 min
[6] = HCV polymerase inhibitory activity (IC50), 1a, type 1a enzyme 1.5 μg/ml, 25° C., 60 min

Compound | IC50 [1, 3] [nM] | IC50 [2, 4] [nM] | IC50 [1, 5] [nM] | IC50 [2, 6] [nM]
CCn1ncc2sc(N3CCN(S(=O)(=O)c4ccc(C(F)(F)F)cc4)[C@@H](C(=O)NCc4ccc(OC(F)(F)F)cc4)C3)nc2c1=O [Example 1037, (R)-4-(5-ethyl-4-oxo-4,5-dihydro-thiazolo[4,5-d]pyridazin-2-yl)-1-(4-trifluoromethyl-benzenesulfonyl)-piperazine-2-carboxylic acid 4-trifluoromethoxy-benzylamide] | < 100 | < 100 | – | –
CCCc1ccc(S(=O)(=O)N2CCN(c3nc(C(=O)O)cs3)C[C@@H]2C(=O)NCc2ccc(C(C)C)cc2)cc1 [Example 298, 2-[(R)-3-(4-isopropyl-benzylcarbamoyl)-4-(4-propyl-benzenesulfonyl)-piperazin-1-yl]-thiazole-4-carboxylic acid] | – | – | 100 to 1000 | 100 to 1000
Cc1nnc2sc(N3CCN(S(=O)(=O)c4ccc(OC(F)(F)F)cc4)[C@@H](C(=O)NCc4ccc(OC(F)(F)F)cc4)C3)nn2c1=O [Example 986, (R)-4-(3-methyl-4-oxo-4H-[1,3,4]thiadiazolo[2,3-c][1,2,4]triazin-7-yl)-1-(4-trifluoromethoxy-benzenesulfonyl)-piperazine-2-carboxylic acid 4-trifluoromethoxy-benzylamide] | < 100 | < 100 | – | –
CC(=O)N1CCN(S(=O)(=O)c2ccc(C(C)C)s2)C(C(=O)NCc2ccc(C(F)(F)F)cc2)C1 (centres unmarked) [Example 75, 4-acetyl-1-(5-isopropyl-thiophene-2-sulfonyl)-piperazine-2-carboxylic acid 4-trifluoromethyl-benzylamide] | – | – | > 1000 | > 1000
CC(C)c1ccc(CNC(=O)[C@H]2CN(C(=O)CCCC(=O)O)CCN2S(=O)(=O)c2ccc(C(F)(F)F)cc2)cc1 [Example 190, 5-[(R)-3-(4-isopropyl-benzylcarbamoyl)-4-(4-trifluoromethyl-benzenesulfonyl)-piperazin-1-yl]-5-oxo-pentanoic acid] | – | – | 100 to 1000 | > 1000
CCC(F)(F)c1ccc(CNC(=O)[C@H]2CN(C(=O)Nc3cc(C)on3)CCN2S(=O)(=O)c2ccc(OC(F)(F)F)cc2)cc1 [Example 526, (R)-4-(4-trifluoromethoxy-benzenesulfonyl)-piperazine-1,3-dicarboxylic acid 3-[4-(1,1-difluoro-propyl)-benzylamide] 1-[(5-methyl-isoxazol-3-yl)-amide]] | – | – | 100 to 1000 | 100 to 1000
CCC(C)(C)c1ccc(S(=O)(=O)N2CCN(C(C)=O)CC2C(=O)NCc2ccc(C(F)(F)F)cc2)cc1 (centres unmarked) [Example 97, 4-acetyl-1-[4-(1,1-dimethyl-propyl)-benzenesulfonyl]-piperazine-2-carboxylic acid 4-trifluoromethyl-benzylamide] | – | – | > 1000 | > 1000
Cc1nc(Cl)c2sc(N3CCN(S(=O)(=O)c4ccc(OC(F)(F)F)cc4)[C@@H](C(=O)NCc4ccc(OC(F)F)cc4)C3)nc2n1 [Example 941, (R)-4-(7-chloro-5-methyl-thiazolo[4,5-d]pyrimidin-2-yl)-1-(4-trifluoromethoxy-benzenesulfonyl)-piperazine-2-carboxylic acid 4-difluoromethoxy-benzylamide] | < 100 | < 100 | – | –
CC(C)c1ccc(CNC(=O)[C@H]2CN(C(=O)Cc3c[nH]cn3)CCN2S(=O)(=O)c2ccc(C(F)(F)F)cc2)cc1 [Example 195, (R)-4-(2-1H-imidazol-4-yl-acetyl)-1-(4-trifluoromethyl-benzenesulfonyl)-piperazine-2-carboxylic acid 4-isopropyl-benzylamide] | – | – | 100 to 1000 | 100 to 1000
CON(C)C(=O)c1ncc2sc(N3CCN(S(=O)(=O)c4ccc(OC(F)(F)F)cc4)[C@@H](C(=O)NCc4ccc(OC(F)(F)F)cc4)C3)nc2n1 [Example 1054, 2-[(R)-4-(4-trifluoromethoxy-benzenesulfonyl)-3-(4-trifluoromethoxy-benzylcarbamoyl)-piperazin-1-yl]-thiazolo[4,5-d]pyrimidine-5-carboxylic acid methoxy-methyl-amide] | < 100 | < 100 | – | –

— patent US8017612B2, “Piperazine compound and use thereof as a HCV polymerase inhibitor” (priority 2006, dated 2011)
